Measurements as given in patent publication US10246457B2, “Indazole and azaindazole Btk inhibitors” (MERCK SHARP & DOHME CORP., priority 2015, dated 2019).

Tests used:
[1] = molecular target: 25P Btk enzyme (un-activated full-length Btk) (Homo sapiens (Human), UniProt Q06187); experiment: 25P Btk Enzyme Activity Assay (LANCE TR-FRET); format: biochemical; conditions: un-activated Btk (25P), 25 μM ATP, 60 minute compound and enzyme incubation; read-out: Btk binding IC50 (nM) with 25 P
Description: Preparation of Un-Activated Btk Enzyme (25P Btk)
Un-activated full-length Btk recombinant protein was purified from baculovirus-transfected Sf21 cells. […] This protein represents the un-activated state of the Btk enzyme.
25P Btk Enzyme Activity Assay
Btk enzymatic activity was determined with the LANCE (Lanthanide Chelate Excite) TR-FRET (lime-resolved fluorescence resonance energy transfer) assay. […] To each well of a black non-binding surface Corning 384-well microplate (Corning Catalog #3820), 5 nL of compound (2000 fold dilution in final assay volume of 10 μL) was dispensed, followed by the addition of 7.5 μL of 1× kinase buffer (50 mM Hepes 7.5, 10 mM MgCl2, 0.01% Brij-35, 1 mM EGTA, 0.05% BSA and 1 mM DTT) containing 26.67 pg/μL (266.7 pM) of 25P Btk enzyme (recombinant protein from baculovirus-transfected Sf9 cells: full-length Btk; MW=79378 Da). Following a 60 minute compound and enzyme incubation, each reaction was initiated by the addition of 2.5 μL 1× kinase buffer containing 8 μM biotinylated “A5” peptide (Biotin-EQEDEPEGDYFEWLE-NH2), and 100 μM ATP. The final reaction in each well of 10 consists of 200 pM 25P Btk, 2 μM biotin-A5-peptide, and 25 μM ATP. Phosphorylation reactions were allowed to proceed for 120 minutes. Reactions were immediately quenched by the addition of 20 uL of 1× quench buffer (15 mM EDTA, 25 mM Hepes 7.3, and 0.1% Triton X-100) containing detection reagents (0.626 nM of LANCE-Eu-W1024-anti-phosphoTyrosine antibody, PerkinElmer and 86.8 nM of Streptavidin-conjugated Dylight 650, Dyomics/ThermoFisher Scientific). After 60 minutes incubation with detection reagents, reaction plates were read on a PerkinElmer EnVision plate reader using standard TR-FRET protocol. Briefly, excitation of donor molecules (Eu-chelate:anti-phospho-antibody) with a laser light source at 337 nm produces energy that can be transferred to Dylight-650 acceptor molecules if this donor:acceptor pair is within close proximity. Fluorescence intensity at both 665 nm (acceptor) and 615 nm (donor) are measured and a TR-FRET ratio calculated for each well (acceptor intensity/donor intensity). IC50 values were determined by 4 parameter robust fit of TR-FRET ratio values vs. (Log10) compound concentrations.

[2] = molecular target: 100P Btk enzyme (activated full-length Btk) (Homo sapiens (Human), UniProt Q06187); experiment: 100P Btk Enzyme Activity Assay (LANCE TR-FRET); format: biochemical; conditions: activated Btk (100P), 25 μM ATP, 60 minute compound and enzyme incubation; top concentration 1000 nM; read-out: Btk binding IC50 (nM) with 100 P
Sequence of 100P Btk enzyme (activated full-length Btk) (Q06187 whole entry): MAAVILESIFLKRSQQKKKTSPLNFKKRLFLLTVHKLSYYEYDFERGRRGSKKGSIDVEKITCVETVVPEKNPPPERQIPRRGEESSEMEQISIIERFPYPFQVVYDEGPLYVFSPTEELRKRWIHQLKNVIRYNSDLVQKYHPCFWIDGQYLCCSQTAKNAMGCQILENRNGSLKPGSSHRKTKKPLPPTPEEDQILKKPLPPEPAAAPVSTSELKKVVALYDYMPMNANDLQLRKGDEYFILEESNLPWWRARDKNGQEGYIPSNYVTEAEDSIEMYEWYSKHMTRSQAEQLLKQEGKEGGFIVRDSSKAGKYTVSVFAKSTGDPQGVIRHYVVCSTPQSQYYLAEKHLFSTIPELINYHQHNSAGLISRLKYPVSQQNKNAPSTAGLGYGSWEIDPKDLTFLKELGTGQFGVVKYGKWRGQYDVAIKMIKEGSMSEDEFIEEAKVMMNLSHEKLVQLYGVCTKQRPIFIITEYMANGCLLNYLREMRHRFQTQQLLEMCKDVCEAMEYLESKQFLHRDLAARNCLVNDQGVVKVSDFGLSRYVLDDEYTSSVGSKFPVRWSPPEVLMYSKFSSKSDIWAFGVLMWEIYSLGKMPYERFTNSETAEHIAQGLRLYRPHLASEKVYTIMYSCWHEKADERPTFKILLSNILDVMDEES
Description: Activated full-length Btk recombinant enzyme was expressed and purified in the same manner as the […] enzyme, except an auto-phosphorylation step was added to the purification scheme. […] This protein represents the activated state of the Btk enzyme. […] Btk Enzyme Activity Assay Btk enzymatic activity was determined with the LANCE (Lanthanide Chelate Excite) TR-FRET (lime-resolved fluorescence resonance energy transfer) assay. […] MW=79378 Da). […] Phosphorylation reactions were allowed to proceed for 45 minutes. […] After 60 minutes incubation with detection reagents, reaction plates were read on a PerkinElmer EnVision plate reader using standard TR-FRET protocol. Briefly, excitation of donor molecules (Eu-chelate:anti-phospho-antibody) with a laser light source at 337 nm produces energy that can be transferred to Dylight-650 acceptor molecules if this donor:acceptor pair is within close proximity. Fluorescence intensity at both 665 nm (acceptor) and 615 nm (donor) are measured and a TR-FRET ratio calculated for each well (acceptor intensity/donor intensity). […] (Log10) compound concentrations.

Sequence of 25P Btk enzyme (un-activated full-length Btk) (Q06187 whole entry): as above

SMILES | IC50 [1] [nM] | IC50 [2] [nM]
Cc1cc2[nH]nc(N)c2cc1-c1cccc(-n2ncc3cc(C(C)(C)C)cc(F)c3c2=O)c1CO [Example 2, 2-[3-(3-amino-6-methyl-1H-indazol-5-yl)-2-(hydroxymethyl)phenyl]-6-tert-butyl-8-fluorophthalazin-1(2H)-one] | 10.9 | 341
CC(C)(C)c1cc(F)c2c(=O)n(-c3cccc(-c4cc(C(F)(F)F)c5[nH]nc(N)c5c4)c3CO)ncc2c1 [Example 4, 2-{3-[3-amino-7-(trifluoromethyl)-1H-indazol-5-yl]-2-(hydroxymethyl)phenyl}-6-tert-butyl-8-fluorophthalazin-1(2H)-one] | 38.6 | –
Cn1nc(N)c2cc(-c3cccc(-n4ncc5cc(C(C)(C)C)cc(F)c5c4=O)c3CO)cc(C(N)=O)c21 [Example 5, 3-amino-5-[3-(6-tert-butyl-8-fluoro-1-oxophthalazin-2 (1H)-yl)-2-(hydroxymethyl)phenyl]-1-methyl-1H-indazole-7-carboxamide] | 47.3 | –
Cc1c(NC(=O)c2ccc(C(C)(C)C)cc2F)cccc1-c1cc(C(N)=O)c2[nH]nc(N)c2c1 [Example 7, 3-amino-5-(3-{[(4-tert-butyl-2-fluorophenyl)carbonyl]amino}-2-methylphenyl)-1H-indazole-7-carboxamide] | 64.5 | –
Cc1c(NC(=O)c2ccc(C(C)(C)C(F)(F)F)cc2F)cccc1-c1cc(C(N)=O)c2[nH]nc(N)c2c1 [Example 8, 3-amino-5-[3-({[2-fluoro-4-(2,2,2-trifluoro-1,1-dimethylethyl)phenyl]carbonyl}amino)-2-methylphenyl]-1H-indazole-7-carboxamide] | 268 | –
CC(C)(C)c1cc(F)c2c(=O)n(-c3cccc(-c4ccc5c(c4)c(N)nn5Cc4ccncc4)c3CO)ncc2c1 [Example 12, 2-{3-[3-amino-1-(pyridin-4-ylmethyl)-1H-indazol-5-yl]-2-(hydroxymethyl)phenyl}-6-tert-butyl-8-fluorophthalazin-1(2H)-one] | 29.6 | –
Cc1c(NC(=O)c2ccc(C(C)(C)C)cc2)cccc1-c1cc(-c2cnn(C)c2)c2[nH]nc(N)c2c1 [Example 13, N-{3-[3-amino-7-(1-methyl-1H-pyrazol-4-yl)-1H-indazol-5-yl]-2-methylphenyl}-4-tert-butylbenzamide] | 16.7 | –
CC(C)(C)c1cc(F)c2c(=O)n(-c3cccc(-c4cc(C(=O)N5CCOCC5)c5[nH]nc(N)c5c4)c3CO)ncc2c1 [Example 14, 2-{3-[3-amino-7-(morpholin-4-ylcarbonyl)-1H-indazol-5-yl]-2-(hydroxymethyl)phenyl}-6-tert-butyl-8-fluorophthalazin-1(2H)-one] | 173 | –

Compounds with a lower IC50 [1], results first:

IC50 [1] [nM] | IC50 [2] [nM] | SMILES
0.14 | 112 | CC(C)(C)c1cc(F)c2c(=O)n(-c3cccc(-c4cc(C(=O)O)c5[nH]nc(N)c5c4)c3CO)ncc2c1 [Example 1, 3-amino-5-[3-(6-tert-butyl-8-fluoro-1-oxophthalazin-2(1H)-yl)-2-(hydroxymethyl)phenyl]-1H-indazole-7-carboxylic acid]
0.16 | 16 | CC(C)(C)c1cc(F)c2c(=O)n(-c3cccc(-c4cc(C(N)=O)c5[nH]nc(N)c5c4)c3CO)ncc2c1 [Example 3, 3-amino-5-[3-(6-tert-butyl-8-fluoro-1-oxophthalazin-2(1H)-yl)-2-(hydroxymethyl)phenyl]-1H-indazole-7-carboxamide]
0.15 | 3.8 | CC(C)n1cc(-c2cc(-c3cccc(-n4ncc5cc(C(C)(C)C)cc(F)c5c4=O)c3CO)cc3c(N)n[nH]c23)cn1 [Example 6, 2-[3-{3-amino-7-[1-(1-methylethyl)-1H-pyrazol-4-yl]-1H-indazol-5-yl}-2-(hydroxymethyl)phenyl]-6-tert-butyl-8-fluorophthalazin-1(2H)-one]
7.7 | – | CC(C)(C)c1cc(F)c2c(=O)n(-c3cccc(-c4ccc5[nH]nc(N)c5n4)c3CO)ncc2c1 [Example 20, 2-[3-(3-amino-1H-pyrazolo[4,3-b]pyridin-5-yl)-2-(hydroxymethyl)phenyl]-6-tert-butyl-8-fluorophthalazin-1(2H)-one]
